Among the test systems are OVCAR-5 ovarian; SN12C renal; HCT-15 colon; HOP-92 NSCLC; SK-MEL-2 melanoma; SF-268 CNS; A549 NSCLC; CAKI-1 renal; A498 renal; COLO 205 colon.
Test in all cases: NCI-60 cell line screen, 48 h

In PubChem BioAssay (NCI) one finds GI50 and TGI data, which are given here for ten compounds.

Molecules are shown by their SMILES.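 96-well plates; 48 h exposure; 5 concentrations. Endpoints by linear interpolation between flanking doses. Not reached: highest tested concentration assigned. The concentration for 50% growth inhibition is given as GI50. The concentration for full growth arrest is given as TGI.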

Take `c1ccc(-c2cc3n4c(-c5ccccc5)nn(-c5ccccc5)c4cnc-3n2)cc1`: the GI50 with OVCAR-5 ovarian was above 50 µM; in the assay with SN12C renal, above 50 µM; with HCT-15 colon it was above 50 µM; with HOP-92 NSCLC, 12 µM; with SK-MEL-2 melanoma it was above 50 µM; in the assay on SF-268 CNS, 10.1 µM. The values for the GI50 in the assay with A549 NSCLC, in the assay with CAKI-1 renal and in the assay with A498 renal were above 50 µM, 15.1 µM and 12.1 µM, respectively. For the same compound, the TGI with OVCAR-5 ovarian, with SN12C renal, with HCT-15 colon, with HOP-92 NSCLC, in the assay on SK-MEL-2 melanoma and with SF-268 CNS was above 50 µM each time. For the same compound, the TGI with A549 NSCLC, in the assay with CAKI-1 renal and in the assay with A498 renal was above 50 µM in each case.

For `O=C1C(=Cc2ccc(F)cc2)C(=O)c2ccccc21`, the TGI in the assay on OVCAR-5 ovarian, with COLO 205 colon, with HCT-15 colon, in the assay with HOP-92 NSCLC, in the assay with SK-MEL-2 melanoma and in the assay on SF-268 CNS was above 100 µM each time. Besides, the TGI with A549 NSCLC, in the assay with CAKI-1 renal and with A498 renal was above 100 µM each time.

Take `C=CCCC(=O)CC(=O)OCc1ccccc1`: the TGI in the assay with OVCAR-5 ovarian, in the assay on COLO 205 colon, in the assay with SN12C renal, in the assay on HCT-15 colon, in the assay with HOP-92 NSCLC and with SK-MEL-2 melanoma was above 100 µM throughout. Besides, the TGI in the assay on SF-268 CNS, in the assay on A549 NSCLC, in the assay with CAKI-1 renal and in the assay with A498 renal was above 100 µM each time.

As for `COC(=O)C(=O)C(C#N)c1c(Cl)cccc1Cl` (configuration not stated), the TGI with OVCAR-5 ovarian, in the assay on COLO 205 colon, with SN12C renal, in the assay with HCT-15 colon, with HOP-92 NSCLC and with SK-MEL-2 melanoma was above 100 µM throughout. The TGI in the assay on SF-268 CNS, with A549 NSCLC, with CAKI-1 renal and in the assay with A498 renal was above 100 µM throughout.

Regarding `Cc1c2ccccc2c(C)n2c1nc1cc(Cl)c(Cl)cc12`, the GI50 with OVCAR-5 ovarian was above 100 µM; with COLO 205 colon, 19.2 µM; with SN12C renal, above 100 µM; in the assay with HCT-15 colon, 93.5 µM; in the assay on HOP-92 NSCLC, above 100 µM; with SK-MEL-2 melanoma it was above 100 µM. For the same compound, the GI50 with SF-268 CNS is above 100 µM; in the assay with A549 NSCLC, above 100 µM; in the assay on CAKI-1 renal, 15.1 µM; in the assay on A498 renal it was above 100 µM. Further, the TGI in the assay on OVCAR-5 ovarian, with COLO 205 colon, with SN12C renal, in the assay with HCT-15 colon, with HOP-92 NSCLC and with SK-MEL-2 melanoma was above 100 µM throughout. The TGI with SF-268 CNS, with A549 NSCLC, in the assay on CAKI-1 renal and with A498 renal was above 100 µM each time.

Consider `CCOC(=O)N(O)c1ccc(/C=C/c2ccccc2)cc1`, for which the GI50 in the assay with OVCAR-5 ovarian is 0.737 µM; with COLO 205 colon, 13.2 µM; in the assay on SN12C renal it was 14.7 µM; in the assay with HCT-15 colon, 9.18 µM; with HOP-92 NSCLC, 4.96 µM; in the assay with SK-MEL-2 melanoma, 8.62 µM. The GI50 in the assay with SF-268 CNS is 18.2 µM; in the assay on A549 NSCLC, 2.98 µM; in the assay with CAKI-1 renal, 2.7 µM; in the assay on A498 renal, 0.146 µM. Further, the TGI with OVCAR-5 ovarian was 9.71 µM; with COLO 205 colon, 38.5 µM; in the assay on SN12C renal, above 100 µM; in the assay with HCT-15 colon it was 37.4 µM; in the assay on HOP-92 NSCLC, 35.7 µM; with SK-MEL-2 melanoma, 28.6 µM. The TGI is above 100 µM in the assay with SF-268 CNS, 41.9 µM in the assay on A549 NSCLC, 21.4 µM in the assay on CAKI-1 renal and 0.291 µM in the assay on A498 renal.

As for `O=C1CC2OCC=C3CN4CCC5(C(=O)O)C(N1)C2C3CC45` (configuration not stated), the TGI with OVCAR-5 ovarian, in the assay on COLO 205 colon, with SN12C renal, in the assay on HCT-15 colon, with HOP-92 NSCLC and with SK-MEL-2 melanoma was above 100 µM throughout. Further, the TGI with SF-268 CNS, with A549 NSCLC, in the assay on CAKI-1 renal and with A498 renal was above 100 µM throughout.

`CC[C@@H](C(=O)[C@@H](C)[C@@H](O)[C@H](C)[C@@H]1O[C@@H]([C@@H](CC)C(=O)O)CC[C@@H]1C)[C@H]1O[C@]2(C=C[C@@H](O)[C@]3(CC[C@@](C)([C@H]4CC[C@](O)(CC)[C@H](C)O4)O3)O2)[C@H](C)C[C@@H]1C`: the GI50 was 6.61 µM in the assay on OVCAR-5 ovarian; 0.489 µM in the assay with COLO 205 colon; 0.226 µM with SN12C renal; 0.912 µM in the assay on HCT-15 colon; 0.266 µM in the assay on HOP-92 NSCLC; 0.279 µM in the assay on SK-MEL-2 melanoma. For the same compound, the GI50 with SF-268 CNS is 1.93 µM; in the assay with A549 NSCLC, 0.421 µM; in the assay with CAKI-1 renal it was 1.61 µM; in the assay with A498 renal it was 0.0567 µM. Also, the TGI was 80.5 µM in the assay with OVCAR-5 ovarian; 11 µM with COLO 205 colon; 44.8 µM in the assay with SN12C renal; above 100 µM in the assay on HCT-15 colon; 5.1 µM in the assay on HOP-92 NSCLC; 2.48 µM in the assay on SK-MEL-2 melanoma. The TGI in the assay with SF-268 CNS came out at 24.8 µM; in the assay with A549 NSCLC it was 14.1 µM; with CAKI-1 renal it was 44.2 µM; in the assay with A498 renal, 0.821 µM.

Turning to `CCOc1ccccc1N=Cc1c2ccccc2cc2ccccc12`, the TGI is 68.9 µM in the assay with OVCAR-5 ovarian; above 88.7 µM in the assay with COLO 205 colon; 61.5 µM with SN12C renal; above 83.5 µM in the assay with HCT-15 colon; 53.4 µM in the assay on HOP-92 NSCLC; 53.4 µM with SK-MEL-2 melanoma. The TGI was 54.5 µM with SF-268 CNS, 80.9 µM in the assay with A549 NSCLC, above 92.4 µM with CAKI-1 renal and above 72.4 µM in the assay with A498 renal.

`Cc1nc(-n2nc(-c3ccccc3)cc2-c2ccccc2)sc1C(=O)/C=C/c1cccc([N+](=O)[O-])c1`: the TGI was 50.9 µM with OVCAR-5 ovarian; 30.8 µM in the assay with COLO 205 colon; 73.4 µM with SN12C renal; above 100 µM with HCT-15 colon; 51.1 µM in the assay on HOP-92 NSCLC; 34.2 µM in the assay on SK-MEL-2 melanoma. The TGI worked out at 31.2 µM in the assay on SF-268 CNS, 55.6 µM in the assay with A549 NSCLC, 49.6 µM in the assay with CAKI-1 renal and 51.9 µM with A498 renal.
